In patent publication US20130204033A1, “ANTIPROLIFERATIVE COMPOUNDS, CONJUGATES THEREOF, METHODS THEREFOR, AND USES THEREOF” (Medarex, Inc., priority 2009, published 2013):

Key:
Format in all cases: cell-based, human
786-O [1] = assay: 3H thymidine proliferation assay, 786-O; settings: Homo sapiens, 786-0, read-out: EC50, 786-O, 3H thymidine method, 72 h incubation
Description: (§1) This example generally describes the procedures used to assay the antiproliferative activity of compounds of this invention or their conjugates. Human tumor cell lines were obtained from the American Type Culture Collection (ATCC), P.O. Box 1549, Manassas, Va. 20108, USA, and cultured according to instruction from the ATCC. Cells were seeded at 1.0×10^3 or 1.0×10^4 cells/well in 96-well plates for 3 h for ATP assays or ^3H thymidine assays, respectively. 1:3 serial dilutions of free (unconjugated) compounds or their conjugates were added to the wells. Plates were allowed to incubate for 24 to 72 h. The ^3H thymidine plates were pulsed with 1.0 μCi of ^3H-thymidine per well for the last 24 hours of the total incubation period, harvested, and read on a Top Count Scintillation Counter (Packard Instruments, Meriden, Conn.). ATP levels in the ATP plates were measured using the […]-GLO® Luminescent Cell Viability kit following the manufacturer's manual and read on a GLOMAX® 20/20 luminometer (both from Promega, Madison, Wis., USA). The EC50 values—the concentration at which an agent inhibits or reduces cell proliferation by 50% —were determined using PRISM™ software, version 4.0 (GraphPad Software, La Jolla, Calif., USA).
(§2) Using the ^3H thymidine or the ATP luminescence assay, or both, the activities of compounds of this invention were assayed against the following cancer cell lines: HCT-15 (colorectal cancer, multi-drug resistant (MDR)); Hep3B (liver cancer); LNCaP (prostate cancer, androgen receptor positive (AR^+)); MDA-MB-231 (breast cancer, estrogen receptor, progesterone receptor, and Her2 negative (triple negative)); A2058 (melanoma); U-87 MG (glioblastoma); NCI-H460 (NSCLC); A549 (NSCLC); HPAC (pancreatic cancer, primary); PC3 (prostate cancer, AR); BT474 (breast cancer, Her2 highly positive (Her2hi)); SKOV3 (ovarian cancer, Her2hi); 786-O (renal cancer); UO-31 (renal cancer, MDR); NCI-H740 (SCLC); DMS53 (SCLC); SK-BR3 (breast cancer, Her2hi); ZR-75 (breast cancer, estrogen receptor positive); OVCAR3 (ovarian cancer); HL-60 (APL); OVCAR8/Adr (ovarian cancer, MDR); CEM-Cl (ALL); Nomo-1 (AML); RPMI-8226 (MM)); Raji (lymphoma); SW-480 (colorectal cancer, metastatic); SW-620 (colorectal cancer); and H226 (lung cancer). (Not all compounds were assayed against all cell lines.)
(§3) Table 2 provides the data for proliferation assays using the ^3H thymidine method, with an incubation period of 72 h.

HL-60 [2] = assay: 3H thymidine proliferation assay, HL-60; settings: Homo sapiens, HL-60, read-out: EC50, HL-60, 3H thymidine method, 72 h incubation
Description: as §1, §2, §3

786-O [3] = assay: ATP luminescence proliferation assay, 786-O
Description: as §1, §2
(§4) FIGS. 12a and 12b show illustrative plots for ATP luminescence proliferation assays for a second set of compounds of this invention, against HL-60 and 786-O cells, respectively, with an incubation period of 72 h. FIGS. 12c and 12d show the plots for ^3H thymidine proliferation assays for the same set of compounds, again against HL-60 and 786-O cells, respectively, with a 72 h incubation period. In each instance, doxorubicin was used as a comparative compound.
(§5) Table 3 provides the data for the ATP luminescence proliferation assays, with an incubation period of 48, 72, or 96 h, as noted.

HL-60 [4] = assay: ATP luminescence proliferation assay, HL-60
Description: as §1, §2, §4, §5

HCT-15 [5] = assay: 3H thymidine proliferation assay, HCT-15; settings: Homo sapiens, HCT-15, read-out: EC50, HCT-15, 3H thymidine method, 72 h incubation
Description: as §1, §2, §3

Hep3B = assay: 3H thymidine proliferation assay, Hep3B; settings: Homo sapiens, Hep3B, read-out: EC50, Hep3B, 3H thymidine method, 72 h incubation
Description: as §1, §2, §3

LNCaP = assay: 3H thymidine proliferation assay, LNCaP; settings: Homo sapiens, LNCaP, read-out: EC50, LNCaP, 3H thymidine method, 72 h incubation
Description: as §1, §2, §3

MDA-MB-231 = assay: 3H thymidine proliferation assay, MDA-MB-231; settings: Homo sapiens, MDA-MB-231, read-out: EC50, MDA-MB-231, 3H thymidine method, 72 h incubation
Description: as §1, §2, §3

A2058 = assay: 3H thymidine proliferation assay, A2058; settings: Homo sapiens, A2058; 3H thymidine method, 72 h incubation
Description: as §1, §2, §3

U-87 MG = assay: 3H thymidine proliferation assay, U-87 MG; settings: Homo sapiens, U-87 MG, read-out: EC50, U-87 MG, 3H thymidine method, 72 h incubation
Description: as §1, §2, §3

NCI-H460 = assay: 3H thymidine proliferation assay, NCI-H460; settings: Homo sapiens, NCI-H460, read-out: EC50, NCI-H460, 3H thymidine method, 72 h incubation
Description: as §1, §2, §3

A549 = assay: 3H thymidine proliferation assay, A549; settings: Homo sapiens, A549, read-out: EC50, A549, 3H thymidine method, 72 h incubation
Description: as §1, §2, §3

HPAC = assay: 3H thymidine proliferation assay, HPAC; settings: Homo sapiens, HPAC, read-out: EC50, HPAC, 3H thymidine method, 72 h incubation
Description: as §1, §2, §3

PC3 = assay: 3H thymidine proliferation assay, PC3; settings: Homo sapiens, PC-3, read-out: EC50, PC3, 3H thymidine method, 72 h incubation
Description: as §1, §2, §3

BT474 = assay: 3H thymidine proliferation assay, BT474; settings: Homo sapiens, BT-474, read-out: EC50, BT474, 3H thymidine method, 72 h incubation
Description: as §1, §2, §3

SKOV3 = assay: 3H thymidine proliferation assay, SKOV3; settings: Homo sapiens, SK-OV-3, read-out: EC50, SKOV3, 3H thymidine method, 72 h incubation
Description: as §1, §2, §3

UO-31 = assay: 3H thymidine proliferation assay, UO-31; settings: Homo sapiens, UO-31, read-out: EC50, UO-31, 3H thymidine method, 72 h incubation
Description: as §1, §2, §3

H740 = assay: 3H thymidine proliferation assay, H740; settings: Homo sapiens, read-out: EC50, H740, 3H thymidine method, 72 h incubation
Description: as §1, §2, §3

DMS53 = assay: 3H thymidine proliferation assay, DMS53; settings: Homo sapiens, DMS-53, read-out: EC50, DMS53, 3H thymidine method, 72 h incubation
Description: as §1, §2, §3

SK-BR3 = assay: 3H thymidine proliferation assay, SK-BR3; settings: Homo sapiens, SK-BR-3; 3H thymidine method, 72 h incubation
Description: as §1, §2, §3

ZR-75 = assay: 3H thymidine proliferation assay, ZR-75; settings: Homo sapiens, ZR75, read-out: EC50, ZR-75, 3H thymidine method, 72 h incubation
Description: as §1, §2, §3

OVCAR3 [6] = assay: 3H thymidine proliferation assay, OVCAR3; settings: Homo sapiens, OVCAR-3, read-out: EC50, OVCAR3, 3H thymidine method, 72 h incubation
Description: as §1, §2, §3

OVCAR8 = assay: 3H thymidine proliferation assay, OVCAR8; settings: Homo sapiens, OVCAR-8, read-out: EC50, OVCAR8, 3H thymidine method, 72 h incubation
Description: as §1, §2, §3

CEM-C1 = assay: 3H thymidine proliferation assay, CEM-C1; settings: Homo sapiens, CEM/C1, read-out: EC50, CEM-C1, 3H thymidine method, 72 h incubation
Description: as §1, §2, §3

Nomo-1 = assay: 3H thymidine proliferation assay, Nomo-1; settings: Homo sapiens, NOMO-1, read-out: EC50, Nomo-1, 3H thymidine method, 72 h incubation
Description: as §1, §2, §3

RPMI-8226 = assay: 3H thymidine proliferation assay, RPMI-8226; settings: Homo sapiens, RPMI-8226, read-out: EC50, RPMI-8226, 3H thymidine method, 72 h incubation
Description: as §1, §2, §3

Raji = assay: 3H thymidine proliferation assay, Raji; settings: Homo sapiens, Raji, read-out: EC50, Raji, 3H thymidine method, 72 h incubation
Description: as §1, §2, §3

H226 = assay: ATP luminescence proliferation assay, H226; settings: 72 h incubation period, read-out: EC50 against the H226 cell line
Description: as §1, with “The EC50 values—the concentration at which an agent inhibits or reduces cell proliferation by 50% —were determined using PRISM™ software, version 4.0 (GraphPad Software, La Jolla, Calif., USA).” left out
as §2, with “(Not all compounds were assayed against all cell lines.)” left out

OVCAR8/Adr = assay: ATP luminescence proliferation assay, OVCAR8/Adr; settings: 48 h incubation period, read-out: EC50 against the OVACAR8/Adr cell line
Description: as §1, §2, §5

HCT-15 [7] = assay: ATP luminescence proliferation assay, HCT-15; settings: ATP luminescence, HCT-15, 72 h incubation; read-out: EC50 HCT-15 (72 h)
Description: as §1, §2, §5

OVCAR3 [8] = assay: ATP luminescence proliferation assay, OVCAR3; settings: ATP luminescence, OVCAR3, 48 h incubation; read-out: EC50 OVCAR3 (48 h)
Description: as §1, §2, §5

[9] = ATP luminescence, 786-O, 72 h incubation, read-out: EC50 786-O (72 h)
[10] = ATP luminescence, HL-60, 48 h incubation, read-out: EC50 HL-60 (48 h)
[11] = ATP luminescence, 786-O, 48 h incubation, read-out: EC50 786-O (48 h)

CC[C@H](C)[C@H](NC(=O)[C@H]1CCCCN1C)C(=O)N(COC)[C@H](C[C@@H](OC(C)=O)c1nc(C(=O)N[C@@H](Cc2ccccc2)C(=O)OC)cs1)C(C)C [(III-q)]
EC50 (786-O [1]): 7.61 nM
EC50 (HL-60 [2]): 15.1 nM
EC50 (786-O [3]; Homo sapiens, 786-0, 72 h, read-out: EC50 786-O (72 h), ATP luminescence, 786-O, 72 h incubation): 104 nM
EC50 (HL-60 [4]; Homo sapiens, HL-60, 72 h, read-out: EC50 HL-60 (72 h), ATP luminescence, HL-60, 72 h incubation): 14.3 nM

CC[C@H](C)[C@H](NC(=O)[C@H]1CCCCN1C)C(=O)N(C)[C@H](C[C@@H](OC)c1nc(C(=O)N[C@@H](C)C(=O)N[C@@H](Cc2ccccc2)C(=O)OC)cs1)C(C)C [Compound 26a]
EC50 (HCT-15 [5]): > 100 nM
EC50 (Hep3B): 36 nM
EC50 (LNCaP): 80 nM
EC50 (MDA-MB-231): > 100 nM
EC50 (A2058): > 100 nM
EC50 (U-87 MG): 71 nM
EC50 (NCI-H460): > 100 nM
EC50 (A549): > 100 nM
EC50 (HPAC): > 100 nM
EC50 (PC3): > 100 nM
EC50 (BT474): 7 nM
EC50 (SKOV3): 47 nM
EC50 (786-O [1]): > 100 nM
EC50 (UO-31): > 100 nM
EC50 (H740): 3.2 nM
EC50 (DMS53): > 100 nM
EC50 (SK-BR3): 158 nM
EC50 (ZR-75): 56 nM
EC50 (OVCAR3 [6]): 21 nM
EC50 (HL-60 [2]): 10 nM
EC50 (OVCAR8): 100 nM
EC50 (CEM-C1): 10 nM
EC50 (Nomo-1): 2 nM
EC50 (RPMI-8226): 22 nM
EC50 (Raji): 20 nM

CC[C@H](C)[C@H](NC(=O)[C@H]1CCCCN1C)C(=O)N(C)[C@H](C[C@@H](OC(C)=O)c1nc(C(=O)N[C@@H](Cc2ccc(N)cc2)CC(C)C(=O)OC)cs1)C(C)C (stereo partly shown) [Compound 36a]
EC50 (H226): 0.307 nM
EC50 (OVCAR8/Adr): 17.1 nM
EC50 (786-O [3]; [9]): 0.434 nM
EC50 (HL-60 [4]; [10]): 0.048 nM

CC[C@H](C)[C@H](NC(=O)[C@H]1CCCCN1C)C(=O)N(C)[C@H](C[C@@H](OC(C)=O)c1nc(C(=O)N[C@@H](Cc2ccc(N)cc2)C[C@H](C)C(=O)O)cs1)C(C)C [Compound 84a]
EC50 (OVCAR8/Adr): > 300 nM
EC50 (HCT-15 [7]): 138 nM
EC50 (786-O [3]; [11]): 6.12 nM
EC50 (OVCAR3 [8]): 8.19 nM
EC50 (HL-60 [4]; [10]): 10 to 28 nM

CC[C@H](C)[C@H](NC(=O)[C@H]1CCCCN1C)C(=O)N(C)[C@H](C[C@@H](OC(C)=O)c1nc(C(=O)N[C@@H](Cc2ccc(N)cc2)C[C@@H](C)C(=O)O)cs1)C(C)C [Compound 84b]
EC50 (OVCAR8/Adr): 47.2 nM
EC50 (HCT-15 [7]): 22.8 nM
EC50 (786-O [3]; [11]): 4.1 nM
EC50 (OVCAR3 [8]): 4.91 nM
EC50 (HL-60 [4]; [10]): 16 to 27 nM

CCOC(=O)C(C)C[C@H](Cc1ccc(N)cc1)NC(=O)c1csc([C@@H](C[C@H](C(C)C)N(COC(=O)CC(C)C)C(=O)[C@@H](NC(=O)[C@H]2CCCCN2C)[C@@H](C)CC)OC)n1 (stereo partly shown) [Compound 133]
EC50 (786-O [3]; [9]): 4.17 nM

CCOC(=O)C(C)C[C@H](Cc1ccc(N)cc1)NC(=O)c1csc([C@@H](C[C@H](C(C)C)N(COC)C(=O)[C@@H](NC(=O)[C@H]2CCCCN2C)[C@@H](C)CC)OC)n1 (stereo partly shown) [Compound 134]
EC50 (786-O [3]; [9]): 9.89 nM

CCCOCN(C(=O)[C@@H](NC(=O)[C@H]1CCCCN1C)[C@@H](C)CC)[C@H](C[C@@H](OC)c1nc(C(=O)N[C@@H](Cc2ccc(N)cc2)CC(C)C(=O)OCC)cs1)C(C)C (stereo partly shown) [Compound 135]
EC50 (786-O [3]; [9]): 12.9 nM
